A word on the MIC: it is the least concentration at which growth counts as inhibited. By IC80 is commonly meant the point of the concentration-response curve where the effect stands at 80%.

Assay [1] relates to Mycobacterium tuberculosis H37Rv. Nature of the assay: Alamar blue (MABA) test, MIC on Mycobacterium tuberculosis H37Rv. Format: cell-based. As to conditions: minimum inhibitory concentration, Alamar blue, strain H37Rv, read-out: MIC (μM) MTb H37Rv. Background: Alamar Blue is a resazurin reagent that responds to reducing activity.
The subject of assay [2] is Streptococcus pneumoniae. Nature of the assay: ATP bioluminescence test, inhibition of bacterial growth of Streptococcus pneumoniae (IC80). Format: cell-based. To be noted: 80% inhibition of bacterial growth, ATP/luciferase readout, read-out: IC80 (μM) S. pneumoniae. As to the method:
Measurement of the Inhibitory Activity (IC80) of the Compounds According to the Invention Towards Streptococcus pneumoniae
The test used is a bioluminescence test, the aim of which is to measure the inhibition of bacterial growth of Streptococcus pneumoniae by quantification of the amount of adenosine triphosphate (ATP). Specifically, ATP is a major and mandatory energy intermediate of very many reactions of cell metabolism which characterizes live media.
ATP quantification is performed at the end of the test by using an enzyme, luciferase, which, in the presence of ATP and of a specific substrate, luciferin, produces quantifiable light.
Thus, in the presence of luciferin and luciferase at […] concentrations, the value obtained in relative light units (RLU) will make it possible, by means of a calibration, to estimate the amount of ATP and thus deduce the number of live bacteria at the end of the incubation period.
Thus, the more the RLU value obtained at the end of the test tends towards zero, the more the product inhibits the total growth of bacteria.
The results (Table 3) are expressed in IC80.

Values after ≈ are worked out from the molar mass of the structure shown.

Turning to `CON=C1C[C@@H](C)O[C@@H](O[C@@H]2[C@@H](C)[C@H](O[C@H]3C[C@H](C)N(C)C[C@H](C)O3)[C@@H](C)C(=O)O[C@H](C(C)CO[C@@H]3O[C@H](C)[C@@H](O)[C@@H](OC)[C@H]3OC)[C@H](C)[C@@H](OC(=O)CC(C)C)[C@@H](C)C(=O)[C@@](C)(OC(=O)NCCc3ccncc3)C[C@@H]2C)[C@@H]1O` (stereo partly drawn) [Compound 2, (2R,3S,4R,5R,7S,9S,10S,11R,12S,13R)-2-(1-{[(2R,3R,4R,5R,6R)-5-hydroxy-3,4-dimethoxy-6-methyltetrahydro-2H-pyran-2-yl]oxy}propan-2-yl)-10-{[(2S,3R,6R)-3-hydroxy-4-(methoxyimino)-6-methyltetrahydro-2H-pyran-2-yl]oxy}-3,5,7,9,11,13-hexamethyl-6,14-dioxo-7-({[2-(pyridin-4-yl)ethyl]carbamoyl}oxy)-12-{[(2S,5S,7R)-2,4,5-trimethyl-1,4-oxazepan-7-yl]oxy}oxacyclotetradecan-4-yl 3-methylbutanoate], in assay [1], the MIC turned out to be 1.25 µM (≈ 1.42 µg/mL). Besides, in assay [2], the IC80 stood at 0.28 µM.

With `CON=C1C[C@@H](C)O[C@@H](O[C@@H]2[C@@H](C)[C@H](O[C@H]3C[C@@H](C)N(C)C[C@H](C)O3)[C@@H](C)C(=O)OC([C@@H](C)CO[C@@H]3O[C@H](C)[C@@H](O)[C@@H](OC)[C@H]3OC)[C@H](C)[C@@H](OC(=O)CC(C)C)[C@@H](C)C(=O)[C@@](C)(OC(=O)NCCNc3ccnc4cc(Cl)ccc34)C[C@@H]2C)[C@@H]1O` (some centres unmarked) [Compound 26], the minimal inhibitory concentration (MIC) in assay [1] is 0.78 µM (≈ 0.965 µg/mL). For the same compound, the IC80 in assay [2] is 0.69 µM.

As to `CON=C1C[C@@H](C)O[C@@H](O[C@@H]2[C@@H](C)[C@H](O[C@H]3C[C@H](C)N(C)C[C@H](C)O3)[C@@H](C)C(=O)O[C@H]([C@@H](C)CO[C@@H]3O[C@H](C)[C@@H](O)[C@@H](OC)[C@H]3OC)[C@H](C)[C@@H](OC(=O)CC(C)C)[C@@H](C)C(=O)[C@@](C)(OC(=O)NC(C)(C)CNC(=O)c3cnc(O)cn3)C[C@@H]2C)[C@@H]1O` [Compound 14], the MIC in assay [1] was 0.67 µM (≈ 0.821 µg/mL). For the same compound, the IC80 in assay [2] came out at 2.27 µM.

On to `CON=C1C[C@@H](C)O[C@@H](O[C@@H]2[C@@H](C)[C@H](O[C@H]3CC(C)N(C4CC4)C[C@H](C)O3)[C@@H](C)C(=O)OC([C@@H](C)CO[C@@H]3O[C@H](C)[C@@H](O)[C@@H](OC)[C@H]3OC)[C@H](C)[C@@H](OC(=O)CC(C)C)[C@@H](C)C(=O)[C@@](C)(OC(=O)NCc3ccccc3)C[C@@H]2C)[C@@H]1O` (some centres unmarked) [Compound 35], for which, in assay [1], the MIC was 0.36 µM (≈ 0.413 µg/mL). For the same compound, the IC80 in assay [2] was found to be 1.81 µM.

The values are drawn from patent US20150210729A1, “MACROLIDE DERIVATIVES, PREPARATION THEREOF AND THERAPEUTIC USE THEREOF” (priority 2012, published 2015).
